ChEMBL document CHEMBL1201862, “PubChem BioAssay data set” (2004)
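Interpolation was linear, between the two tested concentrations surrounding the appropriate level; five concentrations were tested over 48 hours in 96-well plates. GI50 marks 50% less growth.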 Activity calls are given as the source filed them. Rule as the data show it: active = GI50 up to about 1.1 µM and inactive = higher.

Assays:
Test in all cases: growth of human tumour cells (NCI), 48 h
786-0 = test system: 786-0
A498 = test system: A498
A549 = test system: A549
ACHN = test system: ACHN
BT-549 = test system: BT-549
CAKI-1 = test system: CAKI-1
CCRF-CEM = test system: CCRF-CEM
COLO 205 = test system: COLO 205
DU-145 = test system: DU-145
EKVX = test system: EKVX
HCC 2998 = test system: HCC 2998
HCT-116 = test system: HCT-116
HCT-15 = test system: HCT-15
HL-60 = test system: HL-60
HOP-62 = test system: HOP-62
HOP-92 = test system: HOP-92
HT-29 = test system: HT-29
Hs-578T = test system: Hs-578T
IGROV-1 = test system: IGROV-1
K562 = test system: K562
KM12 = test system: KM12
LOX IMVI = test system: LOX IMVI
M14 = test system: M14
MCF7 = test system: MCF7
MDA-MB-231 = test system: MDA-MB-231
MDA-MB-435 = test system: MDA-MB-435
MOLT-4 = test system: MOLT-4
Malme-3M = test system: Malme-3M
NCI-H226 = test system: NCI-H226
NCI-H23 = test system: NCI-H23
NCI-H460 = test system: NCI-H460
NCI-H522 = test system: NCI-H522
NCI/ADR-RES = test system: NCI/ADR-RES
OVCAR-3 = test system: OVCAR-3
OVCAR-4 = test system: OVCAR-4
OVCAR-5 = test system: OVCAR-5
OVCAR-8 = test system: OVCAR-8
PC-3 = test system: PC-3
RPMI-8226 = test system: RPMI-8226
RXF 393 = test system: RXF 393
SF-268 = test system: SF-268
SF-295 = test system: SF-295
SF-539 = test system: SF-539
SK-MEL-28 = test system: SK-MEL-28
SK-MEL-2 = test system: SK-MEL-2
SK-MEL-5 = test system: SK-MEL-5
SN12C = test system: SN12C
SNB-19 = test system: SNB-19
SNB-75 = test system: SNB-75
SR = test system: SR
SW-620 = test system: SW-620
T47D = test system: T47D
TK-10 = test system: TK-10
U-251 = test system: U-251
UACC-257 = test system: UACC-257
UACC-62 = test system: UACC-62
UO-31 = test system: UO-31
SK-OV-3 = test system: SK-OV-3

SMILES: COc1ccc(Nc2nc3cc(C(F)(F)F)ccc3nc2C(=O)O)cc1OC
- GI50 (786-0): 31 µM (inactive)
- GI50 (A498): 30.7 µM (inactive)
- GI50 (A549): 41.3 µM (inactive)
- GI50 (ACHN): 26.7 µM (inactive)
- GI50 (BT-549): 26.3 µM (inactive)
- GI50 (CAKI-1): 27 µM (inactive)
- GI50 (CCRF-CEM): 16.2 µM (inactive)
- GI50 (COLO 205): 27.9 µM (inactive)
- GI50 (DU-145): 15.4 µM (inactive)
- GI50 (EKVX): 30.8 µM (inactive)
- GI50 (HCC 2998): 35.7 µM (inactive)
- GI50 (HCT-116): 27.4 µM (inactive)
- GI50 (HCT-15): 35.6 µM
- GI50 (HL-60): 28.4 µM (inactive)
- GI50 (HOP-62): 35 µM (inactive)
- GI50 (HOP-92): 19 µM (inactive)
- GI50 (HT-29): 40.2 µM (inactive)
- GI50 (Hs-578T): 52.2 µM (inactive)
- GI50 (IGROV-1): 36.5 µM (inactive)
- GI50 (K562): 28.6 µM (inactive)
- GI50 (KM12): 27.8 µM (inactive)
- GI50 (LOX IMVI): 28.9 µM (inactive)
- GI50 (M14): 37.4 µM (inactive)
- GI50 (MCF7): 45.2 µM (inactive)
- GI50 (MDA-MB-231): 29 µM (inactive)
- GI50 (MDA-MB-435): 33.8 µM (inactive)
- GI50 (MOLT-4): 20.1 µM (inactive)
- GI50 (Malme-3M): 42.9 µM (inactive)
- GI50 (NCI-H226): 16.4 µM (inactive)
- GI50 (NCI-H23): 26.4 µM (inactive)
- GI50 (NCI-H460): 37.6 µM (inactive)
- GI50 (NCI-H522): 30.4 µM (inactive)
- GI50 (NCI/ADR-RES): 30.8 µM (inactive)
- GI50 (OVCAR-3): 17.5 µM (inactive)
- GI50 (OVCAR-4): 35.4 µM (inactive)
- GI50 (OVCAR-5): 58.9 µM (inactive)
- GI50 (OVCAR-8): 39.5 µM (inactive)
- GI50 (PC-3): 36.9 µM (inactive)
- GI50 (RPMI-8226): 25.8 µM (inactive)
- GI50 (RXF 393): 23.3 µM (inactive)
- GI50 (SF-268): 42.8 µM (inactive)
- GI50 (SF-295): 10.5 µM (inactive)
- GI50 (SF-539): 23.3 µM (inactive)
- GI50 (SK-MEL-28): 47.5 µM (inactive)
- GI50 (SK-MEL-2): 11.1 µM (inactive)
- GI50 (SK-MEL-5): 22.4 µM (inactive)
- GI50 (SN12C): 21.5 µM (inactive)
- GI50 (SNB-19): 24 µM (inactive)
- GI50 (SNB-75): 62.7 µM (inactive)
- GI50 (SR): 25.1 µM (inactive)
- GI50 (SW-620): 47.2 µM (inactive)
- GI50 (T47D): 27.7 µM (inactive)
- GI50 (TK-10): 34.4 µM (inactive)
- GI50 (U-251): 35.8 µM (inactive)
- GI50 (UACC-257): 29.6 µM (inactive)
- GI50 (UACC-62): 23.7 µM (inactive)
- GI50 (UO-31): 28.2 µM (inactive)

SMILES: COc1ccc(/C=c2\c(=O)[nH]c3nc4ccccc4c(=O)n23)cc1
- GI50 (786-0): 99.5 µM (inactive)
- GI50 (A549): 91.4 µM (inactive)
- GI50 (ACHN): > 100 µM (inactive)
- GI50 (BT-549): 27.3 µM (inactive)
- GI50 (CAKI-1): 55.8 µM (inactive)
- GI50 (CCRF-CEM): 39.9 µM (inactive)
- GI50 (COLO 205): 60.8 µM (inactive)
- GI50 (DU-145): 61.2 µM (inactive)
- GI50 (EKVX): 54.1 µM (inactive)
- GI50 (HCC 2998): 80.5 µM (inactive)
- GI50 (HCT-116): 70 µM (inactive)
- GI50 (HCT-15): 64 µM
- GI50 (HL-60): 36.2 µM (inactive)
- GI50 (HOP-62): > 100 µM (inactive)
- GI50 (HOP-92): 64.7 µM (inactive)
- GI50 (HT-29): 69.8 µM (inactive)
- GI50 (Hs-578T): > 100 µM (inactive)
- GI50 (IGROV-1): 68.4 µM (inactive)
- GI50 (KM12): 73.5 µM (inactive)
- GI50 (LOX IMVI): 45.9 µM (inactive)
- GI50 (M14): 75.2 µM (inactive)
- GI50 (MCF7): 49.9 µM (inactive)
- GI50 (MDA-MB-231): > 100 µM (inactive)
- GI50 (MDA-MB-435): 51.2 µM (inactive)
- GI50 (MOLT-4): 56.5 µM (inactive)
- GI50 (Malme-3M): 58.5 µM (inactive)
- GI50 (NCI-H226): 74.6 µM (inactive)
- GI50 (NCI-H23): 73.8 µM (inactive)
- GI50 (NCI-H522): 37.3 µM (inactive)
- GI50 (NCI/ADR-RES): > 100 µM (inactive)
- GI50 (OVCAR-3): 81.5 µM (inactive)
- GI50 (OVCAR-4): > 100 µM (inactive)
- GI50 (OVCAR-5): > 100 µM (inactive)
- GI50 (OVCAR-8): > 100 µM (inactive)
- GI50 (PC-3): > 100 µM (inactive)
- GI50 (RPMI-8226): 58.3 µM (inactive)
- GI50 (RXF 393): 46.1 µM (inactive)
- GI50 (SF-268): > 100 µM (inactive)
- GI50 (SF-295): > 100 µM (inactive)
- GI50 (SF-539): 46.5 µM (inactive)
- GI50 (SK-MEL-28): 42.5 µM (inactive)
- GI50 (SK-MEL-2): > 100 µM (inactive)
- GI50 (SK-MEL-5): 73.6 µM (inactive)
- GI50 (SK-OV-3): > 100 µM (inactive)
- GI50 (SN12C): 55.1 µM (inactive)
- GI50 (SNB-19): > 100 µM (inactive)
- GI50 (SNB-75): 32.5 µM (inactive)
- GI50 (SR): 48.2 µM (inactive)
- GI50 (SW-620): 36.1 µM (inactive)
- GI50 (T47D): 36.5 µM (inactive)
- GI50 (TK-10): > 100 µM (inactive)
- GI50 (U-251): > 100 µM (inactive)
- GI50 (UACC-257): 88.9 µM (inactive)
- GI50 (UACC-62): 42 µM (inactive)
- GI50 (UO-31): 44.7 µM (inactive)
